Measured values taken from patent publication US20190008870A1, “COMPOSITIONS AND METHODS FOR LIPID METABOLISM DISORDER” (JANSFAT BIOTECHNOLOGY CO., LTD., priority 2016, published 2019).

Legend:
liver fat globules = experiment: Amounts and diameter of liver fat globules in IHC-stained liver sections (steatohepatitis); type: in vivo; set-up: Amounts of liver fat globules, p-HSL staining / Amounts of liver fat globules, TNF-α staining / Amounts of liver fat globules, MMP-9 staining / Amounts of liver fat globules, HSL staining / Amounts of fat globules in steatohepatitis, ATGL staining / Amounts of fat globules in steatohepatitis, CD11c-M1 staining / Amounts of fat globules in steatohepatitis, CD209a-M2 staining: unit not given here; settings: HFD mice
Method: The diameter of the white bar in the photograph was standardized at […] for measuring the specific diameter of oil globulets in a whole liver slice, observed by microscope, with the aid of Powerpoint PC computer software (Microsoft®, U.S.A.) and printed out by a Hewlett-Packard® printer (U.S.A.). An increase in oil globulet diameter and cell number indicated increasing liver steatosis, i.e. steaotohepatitis. In contrast, decrease in diameter and the number of fat cells indicated the inhibition of steaotohepatitis. […] Hematoxylin-eosin (H&E) and IHC staining of liver were used to assess oil globulet numbers under a microscope.
For IHC of MMP-9/TNFα, HSL/p-HSL/ATGL and eNOS/IL-10, antigen retrieval of de-paraffinated sections was performed in Dako target retrieval solution, pH 9.0, in a vegetable steamer followed by the quenching of endogenous peroxidase activity with 3.0% H2O2 in methanol. Sections were then incubated with specific primary antibodies overnight at 4° C. in a humidified chamber. The antibodies used included rabbit polyclonal anti-eNOS (1:50 dilution) (Abcam, Cambridge, UK) or rabbit monoclonal anti-cleaved caspase-3 (1:50 dilution) (Cell Signaling, U.S.A.). The sections were then examined using a DAKO REAL EnVision™ Detection System kit (DAKO, Carpinteria, Calif., U.S.A.) and counterstained with hematoxylin. Images were obtained through a Nikon Eclipse TE200-S microscope.

epididymal fat pads = experiment: Epididymal fat pad weight and diameter in HFD mice; type: in vivo
Method: Mice liver and epididymal fat pads were cut and soaked in formalin, dehydrated through graded alcohols and embedded in paraffin. Specimens of liver tissues and epididymal fat pads fixed with formalin (4%) were embedded in paraffin for one hour at 4° C., cut into 4-μm-thick sections, and subjected to H&E staining before examination by light microscope.

LDLRs = experiment: Fluorescence staining of LDLRs in HepG2 cells; type: cell-based
Method: HepG2 cells were used to determine the cellular protein expression of LDLRs in the presence of exogenous LDL (500 μg/mL). […] All images were collected and analyzed by scanning with Nikon Eclipse TE200-S microscope (Tokyo, Japan).

ROCK II = experiment: Expression of ROCK II (Table 12); settings: Control group 100 (%)
eNOS = experiment: Expression of eNOS (Table 12); settings: Control group 100 (%)
SR-B1 = experiment: HFD-induced hepatic SR-B1 expression; type: in vivo; settings: HFD mice; for SR-B1: CTL 100 (Table 8); for SR-B1 expression: Control 100%
Method: In the experiment, C57BL/6J male mice (21-22 g), after fasting, were fed an HFD as a model of hyperlipidemia for 8 weeks. During the 2 month experiments, mice fasted for one night before the experiment was changed from a standard diet (STD) to an HFD and then the mice were randomly divided into 13 groups, including a protection group, 2 control and 10 treatment groups. Six mice were used in each group. […] Liver from the protection group supplemented with KMUP-1 HCl (1 mg/kg/day) were used to determine the HMG CoA reductase expression. Each group of mice had free access to drinking water from week 1 to week 14. Tap water was used to normalize mineral nutrition.
For the expression of SR-B1, HMGR, PPARγ and ROCK II, isolated liver tissues were cut into small chips and placed into an extraction buffer (Tris 10 mM, pH 7.0, NaCl 140 mM, PMSF 2 mM, DTT 5 mM, NP-40 0.5%, pepstatin A 0.05 mM and leupeptin 0.2 mM) for hepatic protein extraction, and centrifuged at 20,000×g for 30 minutes. The obtained protein extract was boiled to a ratio of 4:1 with a sample buffer (Tris 100 mM, pH 6.8, glycerol 20%, SDS 4% and bromophenol blue 0.2%). Electrophoresis was performed using 10% SDS-polyacrylamide gel (1 hour, 100 V, 40 mA, 20 μg protein per lane).
Separated proteins, after 3 repeated centrifugations to discard up-layer tissue lipid in purity, were transferred to PVDF membranes treated with 5% fat-free milk powder to block the nonspecific IgGs (90 minutes, 100 V) and incubated for 1 hour with specific protein antibody. The blot was then incubated with anti-mouse or anti-goat IgG linked to alkaline phosphatase (1:1000) for 1 hour.

## Cn1c(=O)c2c(ncn2CCN2CCN(c3ccccc3Cl)CC2)n(C)c1=O [KMUP-1, 7-[2-[4-(2-chlorophenyl)piperazinyl]ethyl]-1,3-dimethylxanthine]
Liver fat globules; Protection group
  Amounts of fat globules in steatohepatitis, ATGL staining: 28
  Amounts of fat globules in steatohepatitis, CD11c-M1 staining: 26
  Amounts of fat globules in steatohepatitis, CD209a-M2 staining: 41
  Amounts of liver fat globules, HSL staining: 115
  Amounts of liver fat globules, MMP-9 staining: 18
  Amounts of liver fat globules, TNF-α staining: 18
  Amounts of liver fat globules, p-HSL staining: 28
  Diameter of fat globules in steatohepatitis, ATGL staining: 5.5 μm
  Diameter of fat globules in steatohepatitis, CD11c-M1 staining: 8 μm
  Diameter of fat globules in steatohepatitis, CD209a-M2 staining: 9.5 μm
  Diameter of liver fat globules, HSL staining: 9.7 μm
  Diameter of liver fat globules, MMP-9 staining: 8 μm
  Diameter of liver fat globules, TNF-α staining: 8 μm
  Diameter of liver fat globules, p-HSL staining: 3.9 μm
Liver fat globules; Treatment group
  Amounts of fat globules in steatohepatitis, ATGL staining: 46
  Amounts of fat globules in steatohepatitis, CD11c-M1 staining: 41
  Amounts of fat globules in steatohepatitis, CD209a-M2 staining: 50
  Amounts of liver fat globules, HSL staining: 116
  Amounts of liver fat globules, MMP-9 staining: 19
  Amounts of liver fat globules, TNF-α staining: 19
  Amounts of liver fat globules, p-HSL staining: 68
  Diameter of fat globules in steatohepatitis, ATGL staining: 9.8 μm
  Diameter of fat globules in steatohepatitis, CD11c-M1 staining: 15.5 μm
  Diameter of fat globules in steatohepatitis, CD209a-M2 staining: 11.8 μm
  Diameter of liver fat globules, HSL staining: 9.8 μm
  Diameter of liver fat globules, MMP-9 staining: 9 μm
  Diameter of liver fat globules, TNF-α staining: 9 μm
  Diameter of liver fat globules, p-HSL staining: 9.8 μm
Epididymal fat pads; HFD mice 14 weeks, KMUP-1 2.5 mg/kg/day, Control 46
  Fat pads diameter: 28 μm
Epididymal fat pads; HFD mice, KMUP-1 2.5 mg/kg/day for 14 weeks, Control 165
  Weight of fat pads (R): 120 mg
Epididymal fat pads; HFD mice, KMUP-1 2.5 mg/kg/day for 14 weeks, Control 170
  Weight of fat pads (L): 96 mg
LDLRs; 24 hours, KMUP-1 10^−6, 10^−5, 10^−4 M, simvastatin 10^−5 M
  LDLR (green fluorescence) expression: increased
LDLRs; concentrations >10^−4 M, near the viability range
  LDLR fluorescence at high concentration: decline in fluoresence
ROCK II
  ROCK II expression: 42.5 ± 6.3%
eNOS
  eNOS expression: 155.16 ± 14.8%
SR-B1; Protection group
  SR-B1: 29%
SR-B1; drinking KMUP-1, Protection group
  SR-B1 expression: 30%
SR-B1; drinking KMUP-1, Treatment group
  SR-B1 expression: 59%
SR-B1; treatment 2.5 mg/200 mL drink
  SR-B1: 59%
